Data from paper PMC7609719 (2020).
Each block holds one compound with its values, some of them ahead of it.

Tests used:
[1] = test system: ATP3 (DNA, aptamer) ACCTGGGGGAGTATTGCGGAGGAAGGT; assay: ITC, two-site cooperative fit; settings: Na+ (120 mM NaCl), 10 mM sodium acetate pH 5.5, 20 °C, site 1 of 2
[2] = test system: Apt1d (DNA, aptamer) TTCGGGGAGTATTGCGGAGGAA; assay: ITC; settings: Na+ (100 mM NaCl), Mg2+ (2 mM MgCl2); 10 mM HEPES pH 7.6, 20 °C; 100 µM DNA
[3] = test system: Apt1d-GC1 (DNA, aptamer) TTCGGGGAGTATTGCGCAGGAA; assay: ITC; settings: Na+ (100 mM NaCl), Mg2+ (2 mM MgCl2); 10 mM HEPES pH 7.6, 20 °C; 100 µM DNA
[4] = test system: Apt1d-GC2 (DNA, aptamer) TTCGGGGCGTATTGCGCAGGAA; assay: ITC; settings: Na+ (100 mM NaCl), Mg2+ (2 mM MgCl2); 10 mM HEPES pH 7.6, 20 °C; 100 µM DNA
[5] = test system: ATP9 (DNA, aptamer, inosine at 22 (G22I)) ACCTGGGGGAGTATTGCGGAGGAAGGT; assay: ITC, one-site fit; settings: Na+ (120 mM NaCl); 10 mM sodium acetate pH 5.5, 20 °C
[6] = test system: ATP10 (DNA, aptamer, inosine at 9 (G9I)) ACCTGGGGGAGTATTGCGGAGGAAGGT; assay: ITC, one-site fit; settings: Na+ (120 mM NaCl); 10 mM sodium acetate pH 5.5, 20 °C
[7] = test system: ATP3 (DNA, aptamer) ACCTGGGGGAGTATTGCGGAGGAAGGT; assay: UV melting, 260 nm; settings: Na+ (120 mM NaCl); 10 mM sodium acetate pH 5.5; 95% ligand-bound; derived from two Tm (45.2 ± 0.5, 44.2 ± 1.5)
[8] = test system: ATP7 (DNA, aptamer) ACCTGGGCGCGGGAGTATTGCGGAGCGAGGAAGGT; assay: UV melting, 260 nm; settings: Na+ (120 mM NaCl); 10 mM sodium acetate pH 5.5; 95% ligand-bound; derived from two Tm (55.6 ± 0.5, 55.8 ± 0.6)
[9] = test system: ATP17 (DNA, aptamer) ACCTGGGCGGGGAGTATTGCGGACGAGGAAGGT; assay: ITC, two-site cooperative fit; settings: Na+ (120 mM NaCl); 10 mM sodium acetate pH 5.5, 20 °C; 100 µM DNA; site 1 of 2
[10] = test system: ATP7 (DNA, aptamer) ACCTGGGCGCGGGAGTATTGCGGAGCGAGGAAGGT; assay: ITC, two independent sites fit; settings: Na+ (120 mM NaCl); 10 mM sodium acetate pH 5.5, 20 °C; 100 µM DNA; site 1 of 2

- Kd1 ([1]; 70 µM DNA): 101 ± 33 µM
SMILES: Nc1ncnc2c1ncn2[C@@H]1O[C@H](COP(=O)(O)OP(=O)(O)O)[C@@H](O)[C@H]1O

- Kd1 ([1]; 70 µM DNA): 86 ± 26 µM
SMILES: Nc1ncnc2c1ncn2[C@@H]1O[C@H](COP(=O)(O)O)[C@@H](O)[C@H]1O

- Kd1 ([1]; 70 µM DNA): 133 ± 55 µM
SMILES: Nc1ncnc2c1ncn2[C@@H]1O[C@H](COP(=O)(O)OP(=O)(O)OP(=O)(O)O)[C@@H](O)[C@H]1O

- binding [2]: yes
- binding [3]: no
- binding [4]: no
- affinity [5]: 212 ± 69 µM
- affinity [6]: 188 ± 37 µM
- melting temperature change (ΔTm, bound minus free) [7]: -1.0 °C
- melting temperature change (ΔTm, bound minus free) [8]: 0.2 °C
- Kd1 ([1]; average of fits at 10-100 µM aptamer): 25 ± 15 µM
- Kd1 [9]: 44 ± 8 µM
- Kd1 [10]: 1.3 ± 0.5 µM
SMILES: Nc1ncnc2c1ncn2[C@@H]1O[C@H](CO)[C@@H](O)[C@H]1O
